system: CARM1; test: 96-spot peptide array in vitro methylation, autoradiography; type: biochemical, human; details: 96-spot array, 3H-SAM, 30 °C
Excerpt: Having corroborated the ability of CARM1 to methylate most of the detected substrates, we designed an additional 96-spot peptide array (Fig. 2e and Supplementary Data 3) with two purposes in mind: (1) to examine the significance of surrounding amino acids on CARM1-directed arginine dimethylation, particularly those mutated in human cancers; and (2) to measure PRMT specificity towards respective substrates. The selected sequences encompassed a mixture herein identified and predicted CARM1 substrates (in light blue) and representative cancer-relevant substrates, accompanied by the sequences harbouring mutations detected in human patients[38] (in blue). We also arbitrarily mutated the recognition sequence surrounding R1064 on BAF155 (ref. [20])—the known CARM1 methylation site—to assess the significance of surrounding amino-acid residues to CARM1 activity (four sequence in dark blue). The array also featured 17 known substrates of PRMT1 (in grey), 10 substrates of PRMT5 (in purple) and 4 substrates of PRMT6 (in pink) as positive controls for these enzymes.
The FL and N-terminal domain-deleted version of human CARM1 cDNAs, and other PRMT FL cDNAs were cloned into pFN21K Halo Tag CMV Flexi mammalian expression vector (Promega, Madison, WI) using the unique Sgfl and Pmel site[55]. To express the protein, DNA constructs were transiently transfected into HEK293T CARM1 KO cells in 15 cm dishes using transIT-LT1 reagent (Mirus Bio, Madison, WI) according to the manufacturer's protocol. Proteins were allowed to express for 48 h. Cell pellets were then collected and lysed in lysis buffer (50 mM HEPES, pH 7.5, 150 mM NaCl, 0.005% NP-40, 0.5 mM EDTA, supplemented with 1 × protease inhibitor cocktail before use). The cells were sonicated on ice using a Branson Sonifier 450 with a microtip at 35% amplitude (10 s on, 30 s off, 6 cycles). The crude lysate was cleared by centrifugation (15,000 r.p.m., 4 °C, 20 min). The cleared lysate was then mixed with pre-washed Halo Link resin (60 μl resin for a 15 cm dish) and incubated with rotation at room temperature for 2 h. The resin was then washed twice with lysis buffer, once with lysis buffer supplemented with 1 M urea and twice with lysis buffer. The recombinant proteins were then eluted with cleavage buffer (lysis buffer supplemented with 1 mM DTT and 20 μg ml^−1 TEV protease) with rotation at room temperature for 2 h. The resin was centrifuged at 3,000 r.p.m. for 5 min, and the supernatant containing the cleaved protein was collected and protein concentration was determined using the Bradford assay (Thermo Scientific, Rockford, IL). Protein purity was assessed by running SDS–PAGE and Coomassie Blue staining.
Purified recombinant enzyme and substrates were incubated in methylation buffer (50 mM Tris-HCl, pH 8.0, 100 mM NaCl and 0.5 mM EDTA) for 1–4 h at 30 °C in the presence of 1 μl radioactive S-adenosyl-L-[methyl-^3H] methionine. The reaction was stopped by adding 5 × SDS sample buffer and boiling at 99 °C for 5 min. Proteins were resolved by SDS–PAGE. The gel was stained with Coomassie Brilliant Blue (Coomassie Brilliant Blue R-250 0.05% w/v: methanol 50%: acetic acid 10%: H2O 40%) followed by de-staining with dye-free buffer. Fixed gel was then soaked with amplify (GE Healthcare, Waukesha, WI) with gentle shaking at room temperature for 30 min before drying on a Whatman paper at 80 °C and exposing to an X-ray film in dark at −80 °C. Protein methylation was detected by autoradiography.
For methylation assays using the peptide array, 16 or 20 μg purified recombinant CARM1 or same molar concentration of the other PRMTs (for 96-spot and 192-spot arrays, respectively) was mixed well with 40 μl radioactive S-adenosyl-L-[methyl-^3H] methionine, 80 μl 5 × methylation buffer and ddH2O to achieve a final volume of 200 or 400 μl reaction (for 96-spot and 192-spot arrays, respectively). The Celluspot peptide arrays were customized and produced by Intavis Bioanalytical Instruments, Germany. […]

Sequence | Methylation by CARM1 of mutated peptide vs wild-type sequence
DPYRPVRLQMQKLPT [MED12 (R1862) P1864Q] | significantly reduced methylation by CARM1
PGNILAPRVPLTAPN [BAF155 (R1064) G1062A] | nearly abolished methylation by CARM1
PGNILGARVPLTAPN [BAF155 (R1064) P1063A] | nearly abolished methylation by CARM1
PGNILGPRVALTAPN [BAF155 (R1064) P1066A] | nearly abolished methylation by CARM1
VQSLCDTRFHFQQRA [TET2 (R680) G678D] | significantly reduced methylation by CARM1
YGSQTPQRCPMTMQG [ARID1A (R429) Y430C] | significantly reduced methylation by CARM1
YGSQTPQRYQMTMQG [ARID1A (R429) P431Q] | significantly reduced methylation by CARM1
